Source: PubChem BioAssay AID248 (DTP/NCI, 2004)
Where “and” joins values, the source holds several entries; their conditions need not be identical. Equal entries are not always repeated. Inconclusive results and toxic doses are left out. Rule as the data show it: active = T/C of 150% or more; inactive = T/C below 125%.

System: L1210 leukemia ip in BDF1 mice, survival T/C
Assay: NCI In Vivo Anticancer Drug Screen. Data for tumor model L1210 Leukemia (intraperitoneal) in B6D2F1 (BDF1) mice
Settings: endpoint: mean survival time, higher = longer survival
Procedure, shortened: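 Transplantable tumor model; survival measured in treated vs vehicle control mice. Value = treated/control.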

[1] = dose: 50.0 mg/kg/injection, schedule: Q01DX009 (ip), vehicle: saline with Tween-80
[2] = dose: 50.0 mg/kg/injection, schedule: Q04DX003 (ip), vehicle: saline
[3] = dose: 100.0 mg/kg/injection, schedule: Q01DX009 (ip), vehicle: saline with Tween-80
[4] = dose: 100.0 mg/kg/injection, schedule: Q04DX003 (ip), vehicle: saline
[5] = dose: 200.0 mg/kg/injection, schedule: Q01DX009 (ip), vehicle: saline with Tween-80
[6] = dose: 100.0 mg/kg/injection, schedule: Q01DX009 (ip), vehicle: Klucel (hydroxypropylcellulose) (HPC)
[7] = dose: 200.0 mg/kg/injection, schedule: Q01DX009 (ip), vehicle: Klucel (hydroxypropylcellulose) (HPC)
[8] = dose: 400.0 mg/kg/injection, schedule: Q01DX009 (ip), vehicle: Klucel (hydroxypropylcellulose) (HPC)
[9] = dose: 100.0 mg/kg/injection, schedule: Q01DX001 (ip), vehicle: saline
[10] = dose: 200.0 mg/kg/injection, schedule: Q01DX001 (ip), vehicle: saline
[11] = dose: 400.0 mg/kg/injection, schedule: Q01DX001 (ip), vehicle: saline
[12] = dose: 100.0 mg/kg/injection, schedule: Q04DX003 (ip), vehicle: Klucel (hydroxypropylcellulose) (HPC)
[13] = dose: 200.0 mg/kg/injection, schedule: Q04DX003 (ip), vehicle: Klucel (hydroxypropylcellulose) (HPC)
[14] = dose: 400.0 mg/kg/injection, schedule: Q04DX003 (ip), vehicle: Klucel (hydroxypropylcellulose) (HPC)
[15] = dose: 100.0 mg/kg/injection, schedule: Q01DX009 (ip), vehicle: saline

Measured: T/C

CC(=O)Nc1cc(Cl)ccc1C
inactive: dose: 25.0 mg/kg/injection, schedule: Q01DX009 (ip), vehicle: saline with Tween-80 93 % of control | [1] 90 % of control | [2] 95 % of control | [3] 89 % of control | [4] 97 % of control | dose: 200.0 mg/kg/injection, schedule: Q04DX003 (ip), vehicle: saline 100 % of control

CCOC(=O)c1ccc(NC(=O)Nc2ccc(OC)c([N+](=O)[O-])c2)cc1
inactive: [3] 95 % of control | [5] 90 % of control

CSc1ccc(NC(=O)SCc2ccccc2)cc1
inactive: [6] 97 % of control | [7] 95 % of control | [8] 95 % of control

CCN(CC)CCCNCC(Cc1ccccc1)c1ccccc1 (configuration not stated)
inactive: dose: 100.0 mg/kg/injection, schedule: Q04DX002 (ip), vehicle: saline 92 % of control | dose: 200.0 mg/kg/injection, schedule: Q04DX002 (ip), vehicle: saline 99 % of control

O=C(CC(O)c1ccccc1)Nc1ccccn1 (configuration not stated)
inactive: [9] 98 % of control | [10] 102 % of control | [11] 93 % of control

CCCCCCCC(=O)N(C)OC
inactive: [6] 97 % of control | [12] 89 % of control | [13] 94 % of control | [8] 100 % of control | [14] 92 % of control

COc1cc(/C=N/O)ccc1O
inactive: [1] 97 % of control and 105 % of control | [3] 97 % of control and 102 % of control | dose: 100.0 mg/kg/injection, schedule: Q04DX003 (ip), vehicle: saline with Tween-80 96 % of control | [5] 107 % of control and 112 % of control | dose: 200.0 mg/kg/injection, schedule: Q04DX003 (ip), vehicle: saline with Tween-80 87 % of control | dose: 400.0 mg/kg/injection, schedule: Q04DX003 (ip), vehicle: saline with Tween-80 91 % of control

CCCCCCCCCCCC(=O)Nc1ccc(SSc2ccc(NC(=O)CCCCCCCCCCC)cc2)cc1
inactive: dose: 50.0 mg/kg/injection, schedule: Q01DX001 (ip), vehicle: carboxymethylcellulose (CMC) 97 % of control | dose: 100.0 mg/kg/injection, schedule: Q01DX001 (ip), vehicle: carboxymethylcellulose (CMC) 103 % of control | dose: 200.0 mg/kg/injection, schedule: Q01DX001 (ip), vehicle: carboxymethylcellulose (CMC) 90 % of control | dose: 400.0 mg/kg/injection, schedule: Q01DX001 (ip), vehicle: carboxymethylcellulose (CMC) 101 % of control

COc1cccc(S(C)(=O)=O)c1
inactive: dose: 75.0 mg/kg/injection, schedule: Q01DX009 (ip), vehicle: saline 105 % of control | dose: 75.0 mg/kg/injection, schedule: Q04DX003 (ip), vehicle: saline 101 % of control | dose: 150.0 mg/kg/injection, schedule: Q01DX009 (ip), vehicle: saline 97 % of control | dose: 150.0 mg/kg/injection, schedule: Q04DX003 (ip), vehicle: saline 101 % of control | dose: 300.0 mg/kg/injection, schedule: Q01DX009 (ip), vehicle: saline 92 % of control | dose: 300.0 mg/kg/injection, schedule: Q04DX003 (ip), vehicle: saline 100 % of control

CCN(CC)CCOC(=O)C(c1ccccc1)c1ccccc1
inactive: dose: 75.0 mg/kg/injection, schedule: Q01DX001 (ip), vehicle: saline 104 % of control | dose: 150.0 mg/kg/injection, schedule: Q01DX001 (ip), vehicle: saline 94 % of control

CC(=O)Nc1ccc(SS(=O)(=O)c2ccc(NC(C)=O)cc2)cc1
inactive: [9] 95 % of control | [10] 101 % of control | [11] 101 % of control

CCOC(=O)C1CCC(C(=O)OCC)N1C (configuration not stated)
inactive: [9] 97 % of control | [15] 96 % of control | [10] 88 % of control | dose: 200.0 mg/kg/injection, schedule: Q01DX009 (ip), vehicle: saline 98 % of control | [11] 95 % of control | dose: 400.0 mg/kg/injection, schedule: Q01DX009 (ip), vehicle: saline 100 % of control

CCOC(=O)c1cnc(C)nc1Nc1c(C)cccc1C
inactive: dose: 100.0 mg/kg/injection, schedule: Q01DX001 (ip), vehicle: Klucel (hydroxypropylcellulose) (HPC) 99 % of control | dose: 200.0 mg/kg/injection, schedule: Q01DX001 (ip), vehicle: Klucel (hydroxypropylcellulose) (HPC) 105 % of control | dose: 400.0 mg/kg/injection, schedule: Q01DX001 (ip), vehicle: Klucel (hydroxypropylcellulose) (HPC) 100 % of control

Nc1c(Br)cc(O)c2c1C(=O)c1ccccc1C2=O
inactive: [6] 88 % of control | [12] 100 % of control | [7] 90 % of control | [13] 100 % of control | [8] 90 % of control | [14] 96 % of control

CC(CCc1ccc2sc3ccccc3c2c1)C(N)=O (configuration not stated)
inactive: [9] 94 % of control | [10] 92 % of control | [11] 94 % of control

c1ccc2c(c1)ccc1c3c(oc12)CCCC3
inactive: [9] 116 % of control | [10] 103 % of control | [11] 105 % of control

COc1cc(C(Br)C(Br)C(=O)c2ccccc2[N+](=O)[O-])cc(OC)c1OC (configuration not stated)
inactive: [6] 95 % of control | [7] 95 % of control | [8] 94 % of control

Nc1ccc(S(=O)(=O)c2cc(CC(N)C(=O)O)cc(O)c2O)cc1 (configuration not stated)
inactive: dose: 87.5 mg/kg/injection, schedule: Q01DX009 (ip), vehicle: saline 98 % of control | dose: 175.0 mg/kg/injection, schedule: Q01DX009 (ip), vehicle: saline 96 % of control | dose: 350.0 mg/kg/injection, schedule: Q01DX009 (ip), vehicle: saline 86 % of control

CCOC(=O)C1(C(=O)OCC)C(C)CC(O)N1C(=O)c1ccccc1[N+](=O)[O-] (configuration not stated)
inactive: dose: 25.0 mg/kg/injection, schedule: Q04DX003 (ip), vehicle: Klucel (hydroxypropylcellulose) (HPC) 100 % of control | dose: 50.0 mg/kg/injection, schedule: Q04DX003 (ip), vehicle: Klucel (hydroxypropylcellulose) (HPC) 91 % of control | [12] 92 % of control

CN(C)C(=O)/N=N/C(=O)N(C)C
inactive: dose: 25.0 mg/kg/injection, schedule: Q01DX009 (ip), vehicle: saline 97 % of control | dose: 25.0 mg/kg/injection, schedule: Q04DX003 (ip), vehicle: saline 96 % of control | dose: 50.0 mg/kg/injection, schedule: Q01DX009 (ip), vehicle: saline 106 % of control | [2] 102 % of control | [15] 101 % of control | [4] 102 % of control

c1ccc2c(c1)CCN(C1=NCCO1)C2
inactive: dose: 9.5 mg/kg/injection, schedule: Q01DX001 (ip), vehicle: saline 112 % of control | dose: 10.0 mg/kg/injection, schedule: Q04DX003 (ip), vehicle: saline 97 % of control | dose: 19.0 mg/kg/injection, schedule: Q01DX001 (ip), vehicle: saline 100 % of control | dose: 20.0 mg/kg/injection, schedule: Q04DX003 (ip), vehicle: saline 94 % of control | dose: 38.0 mg/kg/injection, schedule: Q01DX001 (ip), vehicle: saline 101 % of control | dose: 40.0 mg/kg/injection, schedule: Q04DX003 (ip), vehicle: saline 90 % of control

O=C(OC1C=CCC1)c1ccc([N+](=O)[O-])cc1 (configuration not stated)
inactive: [12] 97 % of control | [13] 93 % of control | [14] 93 % of control
